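Where inhibition never reached the appropriate level, the endpoint shown equals the highest concentration tested. Otherwise, values were interpolated linearly from a five-concentration, 48-hour dose response in 96-well plates. Abbreviation: GI50, concentration required for 50% inhibition of growth. TGI denotes the concentration required for complete inhibition of growth.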
Legend:
Experiment in all cases: DTP human tumour cell line panel, 48 h
786-0 renal = test system: 786-0 renal
A498 renal = test system: A498 renal
A549 NSCLC = test system: A549 NSCLC
ACHN renal = test system: ACHN renal
BT-549 breast = test system: BT-549 breast
CAKI-1 renal = test system: CAKI-1 renal
COLO 205 colon = test system: COLO 205 colon
DU-145 prostate = test system: DU-145 prostate
EKVX NSCLC = test system: EKVX NSCLC
HCC-2998 colon = test system: HCC-2998 colon
HCT-116 colon = test system: HCT-116 colon
HCT-15 colon = test system: HCT-15 colon
HL-60(TB) leukemia = test system: HL-60(TB) leukemia
HOP-92 NSCLC = test system: HOP-92 NSCLC
HS 578T breast = test system: HS 578T breast
HT29 colon = test system: HT29 colon
IGROV1 ovarian = test system: IGROV1 ovarian
KM12 colon = test system: KM12 colon
LOX IMVI melanoma = test system: LOX IMVI melanoma
M14 melanoma = test system: M14 melanoma
MALME-3M melanoma = test system: MALME-3M melanoma
MCF7 breast = test system: MCF7 breast
MDA-MB-231 breast = test system: MDA-MB-231 breast
MDA-MB-435 = test system: MDA-MB-435
MDA-MB-468 breast = test system: MDA-MB-468 breast
MOLT-4 leukemia = test system: MOLT-4 leukemia
NCI-H226 lung = test system: NCI-H226 lung
NCI-H23 lung = test system: NCI-H23 lung
NCI-H460 lung = test system: NCI-H460 lung
NCI-H522 lung = test system: NCI-H522 lung
NCI/ADR-RES ovarian = test system: NCI/ADR-RES ovarian
OVCAR-3 ovarian = test system: OVCAR-3 ovarian
OVCAR-5 ovarian = test system: OVCAR-5 ovarian
OVCAR-8 ovarian = test system: OVCAR-8 ovarian
PC-3 prostate = test system: PC-3 prostate
RPMI-8226 leukemia = test system: RPMI-8226 leukemia
RXF 393 renal = test system: RXF 393 renal
SF-268 CNS = test system: SF-268 CNS
SF-295 CNS = test system: SF-295 CNS
SF-539 CNS = test system: SF-539 CNS
SK-MEL-2 melanoma = test system: SK-MEL-2 melanoma
SK-MEL-28 melanoma = test system: SK-MEL-28 melanoma
SK-MEL-5 melanoma = test system: SK-MEL-5 melanoma
SK-OV-3 ovarian = test system: SK-OV-3 ovarian
SN12C renal = test system: SN12C renal
SNB-19 CNS = test system: SNB-19 CNS
SNB-75 CNS = test system: SNB-75 CNS
SR leukemia = test system: SR leukemia
SW-620 colon = test system: SW-620 colon
T-47D breast = test system: T-47D breast
TK-10 renal = test system: TK-10 renal
U251 CNS = test system: U251 CNS
UACC-257 melanoma = test system: UACC-257 melanoma
UACC-62 melanoma = test system: UACC-62 melanoma
UO-31 renal = test system: UO-31 renal

O/N=C(\CSc1nnc(-c2c[nH]c3ccccc23)n1-c1ccccc1)c1ccc(Cl)cc1 showed a GI50 (786-0 renal) of 7.29 µM, a TGI (786-0 renal) greater than 100 µM and a GI50 (A498 renal) of 15.4 µM. For the same molecule, the TGI (A498 renal) was 65.8 µM, the GI50 (A549 NSCLC) was 3.35 µM and the TGI (A549 NSCLC) was 16.8 µM. It also gave a GI50 (ACHN renal) of 3.69 µM, a TGI (ACHN renal) of 14.5 µM and a GI50 (BT-549 breast) of 3.71 µM. It also gave a TGI (BT-549 breast) of 11.1 µM, a GI50 (CAKI-1 renal) of 2.93 µM and a TGI (CAKI-1 renal) of 12.4 µM. The GI50 (COLO 205 colon) was 4.47 µM, the TGI (COLO 205 colon) was 25.9 µM and the GI50 (DU-145 prostate) was 2.59 µM. The TGI (DU-145 prostate) was 6.32 µM, the GI50 (EKVX NSCLC) was 3.21 µM and the TGI (EKVX NSCLC) was 19.2 µM. The GI50 (HCC-2998 colon) was 4.74 µM, the TGI (HCC-2998 colon) was 22.5 µM and the GI50 (HCT-116 colon) was 2.92 µM. The TGI (HCT-116 colon) was 13.7 µM, the GI50 (HCT-15 colon) was 3.2 µM and the TGI (HCT-15 colon) was 13.6 µM. The GI50 (HL-60(TB) leukemia) was 2.17 µM, the TGI (HL-60(TB) leukemia) was 6.34 µM and the GI50 (HOP-92 NSCLC) was 3.84 µM. The TGI (HOP-92 NSCLC) was 37.6 µM, the GI50 (HS 578T breast) was 3.09 µM and the TGI (HS 578T breast) was 16.6 µM. For the same molecule, the GI50 (HT29 colon) was 3.04 µM, the TGI (HT29 colon) was 11.8 µM and the GI50 (IGROV1 ovarian) was 5.35 µM. It also gave a TGI (IGROV1 ovarian) of 19.8 µM, a GI50 (KM12 colon) of 4.72 µM and a TGI (KM12 colon) greater than 100 µM. It also gave a GI50 (LOX IMVI melanoma) of 1.72 µM, a TGI (LOX IMVI melanoma) of 3.12 µM and a GI50 (M14 melanoma) of 3.16 µM. For the same molecule, the TGI (M14 melanoma) was 14.1 µM, the GI50 (MALME-3M melanoma) was 4.99 µM and the TGI (MALME-3M melanoma) was 27.5 µM. The GI50 (MCF7 breast) was 3.63 µM, the TGI (MCF7 breast) was 21.6 µM and the GI50 (MDA-MB-231 breast) was 1.87 µM. For the same molecule, the TGI (MDA-MB-231 breast) was 3.66 µM, the GI50 (MDA-MB-435) was 1.74 µM and the TGI (MDA-MB-435) was 3.41 µM. The GI50 (MDA-MB-468 breast) was 1.72 µM, the TGI (MDA-MB-468 breast) was 3.47 µM and the GI50 (MOLT-4 leukemia) was 2.16 µM. For the same molecule, the TGI (MOLT-4 leukemia) was 5.69 µM, the GI50 (NCI-H226 lung) was 3.98 µM and the TGI (NCI-H226 lung) was 17.6 µM. For the same molecule, the GI50 (NCI-H23 lung) was 6.51 µM, the TGI (NCI-H23 lung) was greater than 100 µM and the GI50 (NCI-H460 lung) was 3.34 µM. It also gave a TGI (NCI-H460 lung) of 15.7 µM, a GI50 (NCI-H522 lung) of 3.11 µM and a TGI (NCI-H522 lung) of 12.5 µM. For the same molecule, the GI50 (NCI/ADR-RES ovarian) was 2.95 µM, the TGI (NCI/ADR-RES ovarian) was 9.5 µM and the GI50 (OVCAR-3 ovarian) was 4.58 µM. The TGI (OVCAR-3 ovarian) was 32.4 µM, the GI50 (OVCAR-5 ovarian) was 3.37 µM and the TGI (OVCAR-5 ovarian) was 11.4 µM. It also gave a GI50 (OVCAR-8 ovarian) of 3.72 µM, a TGI (OVCAR-8 ovarian) of 15.8 µM and a GI50 (PC-3 prostate) of 2.31 µM. It also gave a TGI (PC-3 prostate) of 7.29 µM, a GI50 (RPMI-8226 leukemia) of 2.38 µM and a TGI (RPMI-8226 leukemia) of 7.29 µM. The GI50 (RXF 393 renal) was 2.22 µM, the TGI (RXF 393 renal) was 6.29 µM and the GI50 (SF-268 CNS) was 2.11 µM. The TGI (SF-268 CNS) was 5.08 µM, the GI50 (SF-295 CNS) was 3.11 µM and the TGI (SF-295 CNS) was 13.4 µM. It also gave a GI50 (SF-539 CNS) of 10.2 µM, a TGI (SF-539 CNS) of 29.5 µM and a GI50 (SK-MEL-2 melanoma) of 3.64 µM. For the same molecule, the TGI (SK-MEL-2 melanoma) was 17.1 µM, the GI50 (SK-MEL-28 melanoma) was 4.41 µM and the TGI (SK-MEL-28 melanoma) was greater than 100 µM. The GI50 (SK-MEL-5 melanoma) was 3.87 µM, the TGI (SK-MEL-5 melanoma) was 19.5 µM and the GI50 (SK-OV-3 ovarian) was 3.38 µM. It also gave a TGI (SK-OV-3 ovarian) of 12.4 µM, a GI50 (SN12C renal) of 3.79 µM and a TGI (SN12C renal) of 16.3 µM. It also gave a GI50 (SNB-19 CNS) of 6.89 µM, a TGI (SNB-19 CNS) of 45.2 µM and a GI50 (SNB-75 CNS) of 1.68 µM. For the same molecule, the TGI (SNB-75 CNS) was 5.8 µM, the GI50 (SR leukemia) was 4.74 µM and the TGI (SR leukemia) was greater than 100 µM. The GI50 (SW-620 colon) was 3.08 µM, the TGI (SW-620 colon) was 16.1 µM and the GI50 (T-47D breast) was 3.6 µM. It also gave a TGI (T-47D breast) of 31.4 µM, a GI50 (TK-10 renal) of 3.7 µM and a TGI (TK-10 renal) of 17.7 µM. It also gave a GI50 (U251 CNS) of 4.73 µM, a TGI (U251 CNS) of 81.2 µM and a GI50 (UACC-257 melanoma) of 4.67 µM. It also gave a TGI (UACC-257 melanoma) of 87.8 µM, a GI50 (UACC-62 melanoma) of 2.62 µM and a TGI (UACC-62 melanoma) of 10.1 µM. It also gave a GI50 (UO-31 renal) of 2.88 µM and a TGI (UO-31 renal) of 15.7 µM.
COc1cc2nc(N3CCC[C@H](NC4=CC(=O)c5ccccc5C4=O)C3)nc(N)c2cc1OC was tested, and the GI50 (MDA-MB-468 breast) was 1.79 µM and the TGI (MDA-MB-468 breast) was 3.53 µM.
Molecule CC(C)[P+](c1ccccc1)(c1ccccc1)c1ccccc1 has a GI50 (MDA-MB-468 breast) of 1.12 µM and a TGI (MDA-MB-468 breast) of 10.7 µM.

Reference: PubChem BioAssay (NCI)
